In BindingDB's records for doi:10.1074/jbc.273.36.23321 (Synaptic Pharmaceutical, 1998):
Residues, ends and D or L forms follow the SMILES beside them.

Assays:
Galanin receptor type 3 [1] = target: T1, Galanin receptor type 3 (Rattus norvegicus, UniProt O88626)
T1 sequence (O88626 whole entry): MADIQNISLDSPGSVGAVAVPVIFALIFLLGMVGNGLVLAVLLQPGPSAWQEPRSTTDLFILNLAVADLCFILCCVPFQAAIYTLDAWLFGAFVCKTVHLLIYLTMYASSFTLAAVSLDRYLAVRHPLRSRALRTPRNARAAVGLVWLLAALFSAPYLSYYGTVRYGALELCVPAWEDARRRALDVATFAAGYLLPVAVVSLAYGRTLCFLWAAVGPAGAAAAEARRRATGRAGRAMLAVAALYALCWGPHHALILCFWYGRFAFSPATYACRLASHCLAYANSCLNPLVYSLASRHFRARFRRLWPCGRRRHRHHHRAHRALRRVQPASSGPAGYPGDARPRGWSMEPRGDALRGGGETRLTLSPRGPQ

Galanin receptor type 2 = target: T2, Galanin receptor type 2 (Rattus norvegicus, UniProt O08726)
T2 sequence (O08726 whole entry): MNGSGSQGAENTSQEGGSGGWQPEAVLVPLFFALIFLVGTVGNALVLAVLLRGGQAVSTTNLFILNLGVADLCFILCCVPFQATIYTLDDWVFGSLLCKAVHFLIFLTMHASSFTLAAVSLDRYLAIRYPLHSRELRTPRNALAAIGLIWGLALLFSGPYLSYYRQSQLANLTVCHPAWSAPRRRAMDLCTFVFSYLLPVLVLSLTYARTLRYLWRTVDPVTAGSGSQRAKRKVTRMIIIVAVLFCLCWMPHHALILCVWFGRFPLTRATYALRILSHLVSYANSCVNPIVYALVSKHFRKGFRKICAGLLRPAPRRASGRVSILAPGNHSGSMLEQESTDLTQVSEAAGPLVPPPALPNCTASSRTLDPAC

Galanin receptor type 3 [2] = target: T3, Galanin receptor type 3 (Homo sapiens, UniProt O60755)
T3 sequence (O60755 whole entry): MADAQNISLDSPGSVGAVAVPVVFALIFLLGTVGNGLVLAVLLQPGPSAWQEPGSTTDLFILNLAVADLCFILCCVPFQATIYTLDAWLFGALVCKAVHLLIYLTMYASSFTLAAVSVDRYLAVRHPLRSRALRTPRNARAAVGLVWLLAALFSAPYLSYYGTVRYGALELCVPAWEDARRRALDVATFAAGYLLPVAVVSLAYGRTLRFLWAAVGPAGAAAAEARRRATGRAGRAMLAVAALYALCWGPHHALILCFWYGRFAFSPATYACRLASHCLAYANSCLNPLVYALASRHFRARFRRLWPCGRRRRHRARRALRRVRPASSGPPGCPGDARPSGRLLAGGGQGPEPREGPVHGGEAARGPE

Ki (Galanin receptor type 3 [1]) [nM]	Ki (Galanin receptor type 2) [nM]	Ki (Galanin receptor type 3 [2]) [nM]	Compound
1.23			CC[C@H](C)[C@H](NC(=O)[C@H](Cc1ccc(O)cc1)NC(=O)[C@H](Cc1c[nH]cn1)NC(=O)[C@H](CCCNC(=N)N)NC(=O)[C@@H]1CCCN1C(=O)CNC(=O)[C@H](CC(C)C)NC(=O)[C@H](CC(C)C)NC(=O)[C@H](Cc1ccc(O)cc1)NC(=O)CNC(=O)[C@H](C)NC(=O)[C@H](CO)NC(=O)[C@H](CC(N)=O)NC(=O)[C@H](CC(C)C)NC(=O)[C@@H](NC(=O)[C@H](Cc1c[nH]c2ccccc12)NC(=O)CN)[C@@H](C)O)C(=O)N[C@@H](CC(N)=O)C(=O)N[C@@H](CC(C)C)C(=O)N[C@H](C(=O)N[C@H](C(=O)N[C@@H](CCCNC(=N)N)C(=O)N[C@@H](CCC(N)=O)C(=O)N[C@@H](CCCNC(=N)N)C(=O)N[C@@H](Cc1ccc(O)cc1)C(N)=O)[C@@H](C)O)[C@@H](C)CC [M32]
3.31	1.35	12.3	CC[C@H](C)[C@H](NC(=O)[C@H](C)NC(=O)[C@H](Cc1cnc[nH]1)NC(=O)[C@@H]1CCCN1C(=O)CNC(=O)[C@H](CC(C)C)NC(=O)[C@H](CC(C)C)NC(=O)[C@H](Cc1ccc(O)cc1)NC(=O)CNC(=O)[C@H](C)NC(=O)[C@H](CO)NC(=O)[C@H](CC(N)=O)NC(=O)[C@H](CC(C)C)NC(=O)[C@@H](NC(=O)[C@H](Cc1c[nH]c2ccccc12)NC(=O)CN)[C@@H](C)O)C(=O)N[C@@H](CC(=O)O)C(=O)N[C@@H](CC(N)=O)C(=O)N[C@@H](Cc1cnc[nH]1)C(N)=O [Galanin rat]
	0.56	8.13	CC(C)C[C@H](NC(=O)[C@H](CC(C)C)NC(=O)[C@@H](Cc1c[nH]c2ccccc12)NC(=O)[C@H](Cc1ccccc1)NC(=O)[C@@H](Cc1c[nH]c2ccccc12)NC(=O)[C@H](CCC(N)=O)NC(=O)[C@H](CCC(N)=O)NC(=O)[C@@H]1CCCN1C(=O)[C@H](CCCCN)NC(=O)[C@@H]1CCCN1C(=O)[C@@H](CCCN=C(N)N)NC(=O)[C@@H]1CCCN1C(=O)CNC(=O)[C@H](CC(C)C)NC(=O)[C@H](CC(C)C)NC(=O)[C@H](Cc1ccc(O)cc1)NC(=O)CNC(=O)[C@H](C)NC(=O)[C@H](CO)NC(=O)[C@H](CC(N)=O)NC(=O)[C@H](CC(C)C)NC(=O)[C@@H](NC(=O)[C@H](Cc1c[nH]c2ccccc12)NC(=O)CN)[C@@H](C)O)C(N)=O [Gal(1-13)-Std I] (HELM PEPTIDE1{G.W.T.L.N.S.A.G.Y.L.L.G.P.[dR].P.K.P.Q.Q.[dW].F.[dW].L.L.[am]}$$$$V2.0)
79.4	3.55	288	H-GWTLNSAGYLLGPPPALALA-NH2 [M40]
10.5	1	39.8	COc1ccccc1N(CCOc1ccc(C)cc1)C(=O)CN1CCCCC1 [CAS_3043476]
		1000	CC[C@H](C)[C@H](NC(=O)[C@H](C)NC(=O)[C@H](Cc1c[nH]cn1)NC(=O)[C@@H]1CCCN1C(=O)CNC(=O)[C@H](CC(C)C)NC(=O)[C@H](CC(C)C)NC(=O)[C@H](Cc1ccc(O)cc1)NC(=O)CNC(=O)[C@H](C)NC(=O)[C@H](CO)NC(=O)[C@H](CC(N)=O)NC(=O)[C@H](CC(C)C)NC(=O)[C@@H](N)[C@@H](C)O)C(=O)N[C@@H](CC(=O)O)C(=O)N[C@@H](CC(N)=O)C(=O)N[C@@H](Cc1c[nH]cn1)C(=O)N[C@@H](CCCNC(=N)N)C(=O)N[C@@H](CO)C(=O)N[C@@H](Cc1ccccc1)C(=O)N[C@@H](Cc1c[nH]cn1)C(=O)N[C@@H](CC(=O)O)C(=O)N[C@@H](CCCCN)C(=O)N[C@@H](Cc1ccc(O)cc1)C(=O)NCC(=O)N[C@@H](CC(C)C)C(=O)N[C@@H](C)C(N)=O [Galanin (3-29), porcine]
2.09		14.4	CC(C)C[C@H](NC(=O)[C@H](CC(C)C)NC(=O)[C@H](Cc1ccc(O)cc1)NC(=O)CNC(=O)[C@H](C)NC(=O)[C@H](CO)NC(=O)[C@H](CC(N)=O)NC(=O)[C@H](CC(C)C)NC(=O)[C@@H](NC(=O)[C@H](Cc1c[nH]c2ccccc12)NC(=O)CN)[C@@H](C)O)C(=O)NCC(=O)N1CCC[C@H]1C(=O)N1CCC[C@H]1C(=O)N1CCC[C@H]1C(=O)NCC(=O)N[C@@H](Cc1ccccc1)C(=O)N[C@@H](CO)C(=O)N1CCC[C@H]1C(=O)N[C@@H](Cc1ccccc1)C(=O)N[C@@H](CCCN=C(N)N)C(N)=O
4.47			CC(C)C[C@H](NC(=O)[C@H](CC(C)C)NC(=O)[C@@H](Cc1c[nH]c2ccccc12)NC(=O)[C@H](Cc1ccccc1)NC(=O)[C@@H](Cc1c[nH]c2ccccc12)NC(=O)[C@H](CCC(N)=O)NC(=O)[C@H](CCC(N)=O)NC(=O)[C@@H]1CCCN1C(=O)[C@H](CCCCN)NC(=O)[C@@H]1CCCN1C(=O)[C@@H](CCCNC(=N)N)NC(=O)[C@@H]1CCCN1C(=O)CNC(=O)[C@H](CC(C)C)NC(=O)[C@H](CC(C)C)NC(=O)[C@H](Cc1ccc(O)cc1)NC(=O)CNC(=O)[C@H](C)NC(=O)[C@H](CO)NC(=O)[C@H](CC(N)=O)NC(=O)[C@H](CC(C)C)NC(=O)[C@@H](NC(=O)[C@H](Cc1c[nH]c2ccccc12)NC(=O)CN)[C@@H](C)O)C(N)=O [Gal(1-13)-Std I] (HELM PEPTIDE1{G.W.T.L.N.S.A.G.Y.L.L.G.P.[dR].P.K.P.Q.Q.[dW].F.[dW].L.L.[am]}$$$$V2.0)
